Experimental data as given in patent US12459985B2, “G-protein-coupled receptor internal sensors” (THE REGENTS OF THE UNIVERSITY OF CALIFORNIA, priority 2016, dated 2025).

Target: Beta2AR with a cpGFP integrated into the third intracellular loop (Homo sapiens, UniProt P07550)
Conditions: saturating conditions (1 μM drug)

`CNC[C@H](O)c1ccc(O)c(O)c1` [epinephrine] was tested, and the τ½ON (time constant of association) was 17.1 s and the τ½OFF (time constant of dissociation) was 235.34 s.
